Laboratory results from US5849779A, “Pyrazole derivatives and their pharmaceutical use” (Japan Energy Corporation, priority 1996, dated 1998).

Assays:
[1] = system: BALB/c 3T3 cells; assay: Inhibiting effect on PDGF-stimulated cell growth (3H-thymidine uptake); assay type: cell-based; settings: Mus musculus, BALB/c3T3, PDGF-AA or PDGF-BB 10 ng/mL, 16 h; for inhibition at 3 µM: concentration 3 μM
Description: Effect on PDGF-stimulated cell growth was estimated by the following method using fibroblasts, growth of which is induced by PDGF in the same manner of smooth muscle cells to verify inhibitory activity of the pyrazole derivative of the present invention against PDGF-stimulated cell growth.
BALB/c 3T3 cells seeded on a 96-well plate (3-5×10^3 cell/well) were incubated in a high glucose Dulbecco's modified Eagle's medium (DME medium) containing 10% fetal bovine sera (FBS) for 2-3 days until confluent. The medium was replaced by high glucose DME medium containing 0.5% platelet poor plasma (PPP) followed by incubation for further 24 h.
The medium was replaced by high glucose DME medium containing PDGF-AA or PDGF-BB (10 ng/mL) to induce PDGF-stimulated cell growth, and a DMSO solution of a test sample was added followed by incubation for 16 h. Then, ^3 H-thymidine (1 mCi/ml) was 20-fold diluted by Ca^2+ and Mg^2+ free phosphate-bufferized saline, and 0.02 mL of the resulted solution was added followed by incubation for further 4 h. Final concentration of DMSO was not more than 0.25%.
After ^3 H-thymidine in the medium was washed out, cells were treated with trypsin/EDTA and collected using a cell-harvester. Amount of ^3 H-thymidine taken in the cells was measured by a liquid scintillation counter. […] Growth inhibition was estimated by difference of the amount of ^3 H-thymidine taken between the test incubation and the reference incubation.

[2] = system: Human coronary artery smooth muscle cells; assay: Inhibiting effect on PDGF-stimulated smooth muscle cell growth (3H-thymidine method); assay type: cell-based; settings: PDGF-BB 20 ng/mL, 16 h
Description: Effect on PDGF-stimulated smooth muscle cell growth was estimated by the following method to verify inhibitory activity of the pyrazole derivative of the present invention against smooth muscle cell growth. (Test method)
Human coronary artery smooth muscle cells seeded on a 96-well plate (2×10^4 cell/well) were incubated in a complete medium consisting of a basal medium (SmGM-2: Iwaki Glass Co., Japan), FBS (5%), EGF (0.5 ng/mL), insulin (0.005 mg/mL), and basic-FGF (2 ng/mL) for 24 h until confluent. The medium was replaced by the basal medium followed by incubation for further 24 h to lead cells to GO stage.
The medium was replaced by a medium consisting of the basal medium and PDGF-BB (20 ng/mL) to induce PDGF-stimulated cell growth, and a DMSO solution of a test sample was added followed by incubation for 16 h. Then, inhibition of cell growth was estimated by a ^3 H-thymidine method as described in Example 22.
Tranilast was used as positive reference.

[3] = system: re-narrowing; settings: Rinsho Iyaku, 12, 65-85 (1996); cited from earlier work
[4] = system: smooth muscle cell; settings: as reported in literature; cited from earlier work
[5] = system: smooth muscle cell; settings: Atherosclerosis, 107, 179-185 (1994); cited from earlier work
[6] = system: hepatic function; settings: clinical use; cited from earlier work

| Structure (SMILES) | inhibition at 3 µM [1] [%] | IC50 [2] [nM] | also measured |
| --- | --- | --- | --- |
| CCCCn1cc(C(=O)OCC)c(NC(=S)Nc2ccccc2)n1 [Example 3, N-phenyl-N'-(1-butyl-4-ethoxycarbonylpyrazol-3-yl)thiourea] | 89.5 | 1500 |  |
| CCOC(=O)c1cn(Cc2ccccc2)nc1NC(=O)NC(C)C [Example 8, N-isopropyl-N'-(1-benzyl-4-ethoxycarbonylpyrazol-3-yl)urea] |  | 1300 |  |
| CCCNC(=O)Nc1nn(Cc2ccccc2)cc1C(=O)OCC [Example 1, N-propyl-N'-(1-benzyl-4-ethoxycarbonylpyrazol-3-yl)urea] | 84.5 | 2300 |  |
| CCOC(=O)c1cn(Cc2ccccc2)nc1NC(=O)N(c1ccccc1)c1ccccc1 [Example 16, N, N-diphenyl-N'-(1-benzyl-4-ethoxycarbonylpyrazol-3-yl)urea] |  | 1100 |  |
| CCOC(=O)c1cn(Cc2ccccc2)nc1N(Cc1ccccc1)C(=O)Nc1ccccc1 [Example 18, N-phenyl-N'-benzyl-N'-(1-benzyl-4-ethoxycarbonylpyrazol-3-yl)urea] |  | 3000 |  |
| CCOC(=O)c1cnn(-c2ccccc2)c1NC(=O)Nc1ccccc1 [Example 6, N-phenyl-N'-(4-ethoxycarbonyl-1-phenylpyrazol-5-yl)urea] | 49.9 |  |  |
| CCCN(CCC)C(=O)Nc1nn(Cc2ccccc2)cc1C(=O)OCC [Example 15, N, N-dipropyl-N'-(1-benzyl-4-ethoxycarbonylpyrazol-3-yl)urea] |  | 2200 |  |
| COc1ccc(/C=C/C(=O)Nc2ccccc2C(=O)O)cc1OC [tranilast, N-(3,4-dimethoxycinnamoyl) anthranilic acid, reference compound] |  | 5000 | prevention of clinical re-narrowing after percutaneous transluminal angioplasty [3]: prevent clinical re-narrowing after percutaneous transluminal angioplasty; inhibition at 10 µM ([1]; concentration 10 μM): 19.2%; inhibition at 30 µM ([1]; concentration 30 μM): 57.1%; inhibition at 100 µM ([1]; concentration 100 μM): 92.5%; inhibition of PDGF-stimulated smooth muscle cell growth [4]: reported to inhibit PDGF-stimulated smooth muscle cell growth; inhibition of growth of smooth muscle cell [5]: inhibit growth of smooth muscle cell; side effects on hepatic function [6]: often causes side effects on hepatic function |
| CCCCn1cc(C(=O)OCC)c(NC(=O)Nc2ccccc2)n1 [Example 2, N-phenyl-N'-(1-butyl-4-ethoxycarbonylpyrazol-3-yl)urea] | 81.9 | 3100 |  |
| CCCNC(=O)Nc1c(C(=O)OCC)cnn1-c1ccccc1 [Example 7, N-propyl-N'-(4-ethoxycarbonyl-1-phenylpyrazol-5-yl)urea] | 36.4 |  |  |
